Columns and labels:
Assay in all cases: radiolabelled phospholipid transfer between donor and acceptor vesicles
Format in all cases: biochemical
[1] = molecular target: T1, PITP (rat phosphatidylinositol transfer protein α) (Rattus norvegicus, UniProt P16446); settings: labelled compound; positive control protein; vesicles as in the rows above
T1 construct: gene Pitpna
T1 sequence (P16446 2-271): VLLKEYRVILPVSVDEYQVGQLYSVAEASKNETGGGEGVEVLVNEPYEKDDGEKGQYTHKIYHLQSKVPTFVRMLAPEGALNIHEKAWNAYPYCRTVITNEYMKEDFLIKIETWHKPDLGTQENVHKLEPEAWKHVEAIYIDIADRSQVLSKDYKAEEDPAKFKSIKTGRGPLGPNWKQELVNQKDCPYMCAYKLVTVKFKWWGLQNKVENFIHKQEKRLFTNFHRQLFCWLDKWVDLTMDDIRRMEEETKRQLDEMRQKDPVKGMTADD

[2] = molecular target: T2, PFA0210cN99 (Plasmodium falciparum, UniProt Q8I298); settings: labelled compound, donor vesicles PC, phosphatidic acid, N-lactosylethanolamine
T2 construct: gene PF3D7_0104200
T2 sequence (Q8I298 entry or part of it): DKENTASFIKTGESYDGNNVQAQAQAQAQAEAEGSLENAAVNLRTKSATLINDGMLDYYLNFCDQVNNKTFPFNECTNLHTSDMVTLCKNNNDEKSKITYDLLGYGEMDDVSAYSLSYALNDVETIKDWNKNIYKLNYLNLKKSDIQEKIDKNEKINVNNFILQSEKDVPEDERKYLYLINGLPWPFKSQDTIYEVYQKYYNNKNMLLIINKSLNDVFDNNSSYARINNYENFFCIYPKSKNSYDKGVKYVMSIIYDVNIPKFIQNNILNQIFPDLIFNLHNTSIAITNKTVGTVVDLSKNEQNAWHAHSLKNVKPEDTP

[3] = molecular target: T3, PFA0210cN123 (Plasmodium falciparum, UniProt Q8I298); settings: labelled compound, donor vesicles PC, phosphatidic acid, N-lactosylethanolamine
T3 construct: gene PF3D7_0104200
T3 sequence (Q8I298 entry or part of it): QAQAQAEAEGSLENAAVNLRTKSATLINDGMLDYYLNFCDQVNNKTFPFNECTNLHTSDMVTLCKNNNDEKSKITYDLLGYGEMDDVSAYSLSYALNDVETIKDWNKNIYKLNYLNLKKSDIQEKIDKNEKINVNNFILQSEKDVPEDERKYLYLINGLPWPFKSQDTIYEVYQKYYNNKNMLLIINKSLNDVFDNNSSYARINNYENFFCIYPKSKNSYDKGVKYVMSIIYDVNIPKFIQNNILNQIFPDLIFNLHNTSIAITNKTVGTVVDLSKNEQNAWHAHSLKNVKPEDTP

CCCCCCCCCCCCCCCC(=O)OC[C@H](COP(=O)([O-])OCC[N+](C)(C)C)OC(=O)CCCCCCCCCCCCCCC [L-[α-dipalmitoyl-1-14C]phosphatidylcholine]
radiolabelled phospholipid transfer between donor and acceptor vesicles [1]: transferred PC at levels similar to that of the control protein PITP | radiolabelled phospholipid transfer between donor and acceptor vesicles [2]: (PFA0210cN99, PFA0210cN123, and PFA0210cN144, respectively) as the N-terminal residue can transfer phospholipids | radiolabelled phospholipid transfer between donor and acceptor vesicles [3]: (PFA0210cN99, PFA0210cN123, and PFA0210cN144, respectively) as the N-terminal residue can transfer phospholipids

From publication PMC3814793, “Identification of a Plasmodium falciparum Phospholipid Transfer Protein” (The Journal of Biological Chemistry, 2013)
